The values below come from publication PMC6213900, “Design, Synthesis, and Cytotoxic Analysis of Novel Hederagenin–Pyrazine Derivatives Based on Partial Least Squares Discriminant Analysis” (International Journal of Molecular Sciences, 2018).

Like-named read-outs stand apart in the source and are kept apart here.

For data set [1], the system named is MCF-7 (human mammary cancer). Put plainly: MTT cytotoxicity assay, MCF-7. In kind it is cell-based. The settings on record: read-out: Half Maximal Inhibitory Concentration (IC50) MCF-7. As for the experimental part:
(§1) The cytotoxicity of hederagenin derivatives in vitro was evaluated on three tumor cell lines (A549: human non-small-cell lung cancer; MCF-7: human mammary cancer; HepG2: human hepatocellular carcinoma) using the 3-(4,5-dimethylthiazol-2-yl)-2,5-diphenyltetrazolium bromide (MTT) assay. In addition, their toxicity evaluations were tested on H9c2 (murine heart myoblast) and MDCK (Madin–Darby canine kidney) cells. MCF-7, A549, HepG2, H9c2, and MDCK cells were obtained from the Chinese Academy of Medical Sciences and Peking Union Medical College. All of the cell lines were maintained in Dulbecco’s modified Eagle medium (DMEM) supplemented with 1% (v/v) penicillin/streptomycin and 10% (v/v) fetal bovine serum (FBS; Thermo Technologies, New York, NY, USA) under a humidified atmosphere containing 5% CO2 at 37 °C. The stock solutions of He derivatives were dissolved in dimethyl sulfoxide (DMSO; Sigma, St. Louis, MO, USA) and added at various concentrations to the cell culture. Cellular morphologies were observed using an inverted fluorescence microscope (Olympus IX71, Tokyo, Japan), a plate reader (BIORAD 550 spectrophotometer, Bio-rad Life Science Development Ltd., Beijing, China), and a Canton 2 flow cytometer (BD, New York, NY, USA). The antitumor activity of these compounds were evaluated on MCF-7, A549, HepG2, MDCK, and H9c2 cell lines using the MTT assay. Cells at a density of 3 × 10^3 cells/well were plated in a 96-multiwell plate in DMEM containing 10% FBS for 24 h at 37 °C with 5% CO2. Then, cells were treated for 72 h with the required concentrations (3.125, 6.25, 12.5, 25, or 50 μM) of the compounds and reference drugs (He and DDP) dissolved with the vehicle DMSO. After that, the culture substrate was replaced with 200 μL of DMEM containing 20 μL of MTT solution at 5 mg/mL and incubated for 4 h. The supernatant was removed and the dissolved formazans precipitated with 120 μL of DMSO. Wells without drugs were used as blanks. A plate reader was used to determine the absorbance at 490 nm. The above steps were repeated three times. The IC50 values were defined as the concentration of the compound which gave 50% growth inhibition, and they were calculated using Graph Pad Prism 5. The inhibition rate was calculated using the following formula, where OD is the optical density:% inhibition = 1 − (Sample group OD/Control group OD) × 100%. (1)
In general terms: Tetrazolium assays rely on reduction of a dye to a coloured formazan, in cell work by metabolically active cells.

The test system of data set [2] is A549 (human non-small-cell lung cancer). Put plainly: MTT cytotoxicity assay, A549. In kind it is cell-based. The settings on record: read-out: Half Maximal Inhibitory Concentration (IC50) A549. The procedure: as §1
Data set [3] has as its system MDCK (Madin–Darby canine kidney) cells. Put plainly: MTT toxicity evaluation, MDCK. The data set is classed as cell-based. Particulars: 72 h treatment, non-tumor cells, read-out: Half Maximal Inhibitory Concentration (IC50) MDCK. As for the experimental part:
as §1

Data set [4] deals with H9c2 (murine heart myoblast). Nature of the data set: MTT toxicity evaluation, H9c2. In kind it is cell-based. Particulars: non-tumor cells, read-out: Half Maximal Inhibitory Concentration (IC50) H9c2. The procedure:
as §1

The test system of data set [5] is HepG2 (human hepatocellular carcinoma). Put plainly: MTT cytotoxicity assay, HepG2. In kind it is cell-based. The settings on record: MTT, 72 h treatment, read-out: Half Maximal Inhibitory Concentration (IC50) HepG2. The procedure:
as §1

[6] abbreviates: Homo sapiens, MCF7, 72 h treatment.
[7] abbreviates: Homo sapiens, A549, 72 h treatment.

As usually defined, the melting point is the temperature, or range, at which the solid turns liquid. The compound `Cc1nccnc1C(=O)OCCCCOC(=O)[C@]12CCC(C)(C)CC1C1=CCC3[C@@]4(C)CC[C@H](O)[C@@](C)(CO)C4CC[C@@]3(C)[C@]1(C)CC2` (stereo partly drawn) [Compound 17, 4-(((4aS,6aS,6bR,9R,10S,12aR)-10-Hydroxy-9-(hydroxymethyl)-2,2,6a,6b,9,12a-hexamethyl-1,2,3,4,4a,5,6,6a,6b,7,8,8a,9,10,11,12,12a,12b,13,14b-icosahydropicene-4a-carbonyl)oxy)butyl-3-methylpyrazine-2-carboxylate] displayed a melting point of 145.2 °C. Also, the IC50 in data set [1] (setting [6]) came out at 22.9 ± 0.66 µM. Besides, the IC50 in data set [2] (setting [7]) was found to be 19.6 ± 0.22 µM. The IC50 in data set [3] (Canis lupus familiaris, MDCK) was 20.9 ± 3.03 µM. Further, in data set [4] (H9c2, 72 h treatment), the IC50 is 22.3 ± 0.3 µM. Also, the IC50 in data set [5] (Homo sapiens, HepG2) turned out to be 8.15 ± 0.22 µM.
For the compound `Cc1ncc(C(=O)OCCCCOC(=O)[C@]23CCC(C)(C)CC2C2=CCC4[C@@]5(C)CC[C@H](O)[C@@](C)(CO)C5CC[C@@]4(C)[C@]2(C)CC3)nc1C` (stereo partly drawn) [Compound 18, 4-(((4aS,6aS,6bR,9R,10S,12aR)-10-Hydroxy-9-(hydroxymethyl)-2,2,6a,6b,9,12a-hexamethyl-1,2,3,4,4a,5,6,6a,6b,7,8,8a,9,10,11,12,12a,12b,13,14b-icosahydropicene-4a-carbonyl)oxy)butyl-5,6-dimethylpyrazine-2-carboxylate], the melting point was 134.7 °C. The IC50 in data set [1] (setting [6]) amounted to 28.3 ± 0.41 µM. In addition, the IC50 in data set [2] (setting [7]) came to 16.17 ± 0.15 µM. Besides, the IC50 in data set [3] (Canis lupus familiaris, MDCK) turned out to be 16.6 ± 0.22 µM. In addition, the IC50 in data set [4] (H9c2, 72 h treatment) is greater than 30 µM. Moreover, the IC50 in data set [5] (Homo sapiens, HepG2) stood at 11.9 ± 0.99 µM.
The compound `Cc1ncc(COC(=O)[C@]23CCC(C)(C)CC2C2=CCC4[C@@]5(C)CC[C@H](O)[C@@](C)(CO)C5CC[C@@]4(C)[C@]2(C)CC3)nc1C` (stereo partly drawn) [Compound 5, (5,6-Dimethylpyrazin-2-yl)methyl(4aS,6aS,6bR,9R,10S,12aR)-10-hydroxy-9-(hydroxymethyl)-2,2,6a,6b,9,12a-hexamethyl-1,3,4,5,6,6a,6b,7,8,8a,9,10,11,12,12a,12b,13,14b-octadecahydropicene-4a(2H)-carboxylate] showed a melting point greater than 200 °C. In addition, in data set [1] (setting [6]), the IC50 is greater than 30 µM. The IC50 in data set [2] (setting [7]) was 24.4 ± 0.37 µM. Moreover, in data set [3] (Canis lupus familiaris, MDCK), the IC50 is 23.5 ± 0.67 µM. Also, the IC50 in data set [4] (H9c2, 72 h treatment) is 28.5 ± 0.29 µM. Besides, the IC50 in data set [5] (Homo sapiens, HepG2) was 24.94 ± 0.06 µM.
Take `CC1(C)CC[C@]2(C(=O)OCc3cnccn3)CC[C@]3(C)C(=CCC4[C@@]5(C)CC[C@H](O)[C@@](C)(CO)C5CC[C@]43C)C2C1` (stereo partly drawn) [Compound 1, Pyrazin-2-ylmethyl(4aS,6aS,6bR,9R,10S,12aR)-10-hydroxy-9-(hydroxymethyl)-2,2,6a,6b,9,12a-hexamethyl-1,3,4,5,6,6a,6b,7,8,8a,9,10,11,12,12a,12b,13,14b-octadecahydropicene-4a(2H)-carboxylate]: the melting point stood at 146.8 °C. Further, the IC50 in data set [1] (setting [6]) stood at 16.05 ± 0.01 µM. Moreover, in data set [2] (setting [7]), the IC50 came to 17.6 ± 0.37 µM. The IC50 in data set [3] (Canis lupus familiaris, MDCK) was 18.1 ± 0.25 µM. The IC50 in data set [4] (H9c2, 72 h treatment) was determined as 14.7 ± 0.51 µM. In data set [5] (Homo sapiens, HepG2), the IC50 was determined as 18.79 ± 0.04 µM.
In turn, `Cc1cncc(C(=O)OC[C@@]2(C)C3CC[C@]4(C)C(CC=C5C6CC(C)(C)CC[C@]6(C(=O)OCCCCCl)CC[C@]54C)[C@@]3(C)CC[C@@H]2O)n1` (stereo partly drawn) [Compound 22, ((3S,4R,6aR,6bS,8aS,14bR)-8a-((4-Chlorobutoxy)carbonyl)-3-hydroxy-4,6a,6b,11,11,14b-hexamethyl-1,2,3,4,4a,5,6,6a,6b,7,8,8a,9,10,11,12,12a,14,14a,14b-icosahydropicen-4-yl)methyl 6-methylpyrazine-2-carboxylate] gave a melting point of 126.9 °C. Further, in data set [1] (setting [6]), the IC50 worked out at 20.5 ± 3.63 µM. Further, the IC50 in data set [2] (setting [7]) was found to be 10.4 ± 0.43 µM. Also, in data set [3] (Canis lupus familiaris, MDCK), the IC50 worked out at 16.3 ± 1.57 µM. The IC50 in data set [4] (H9c2, 72 h treatment) came to 16.26 ± 0.07 µM. Besides, the IC50 in data set [5] (Homo sapiens, HepG2) came to 7.15 ± 0.43 µM.
As to `Cc1nc(C)c(C(=O)OCCOC(=O)[C@]23CCC(C)(C)CC2C2=CCC4[C@@]5(C)CC[C@H](O)[C@@](C)(CO)C5CC[C@@]4(C)[C@]2(C)CC3)nc1C` (stereo partly drawn) [Compound 13, 2-(((4aS,6aS,6bR,9R,10S,12aR)-10-Hydroxy-9-(hydroxymethyl)-2,2,6a,6b,9,12a-hexamethyl-1,2,3,4,4a,5,6,6a,6b,7,8,8a,9,10,11,12,12a,12b,13,14b-icosahydropicene-4a-carbonyl)oxy)ethyl-3,5,6-trimethylpyrazine-2-carboxylate], the melting point turned out to be 150.6 °C. Further, the IC50 in data set [1] (setting [6]) turned out to be 18.03 ± 0.18 µM. Moreover, the IC50 in data set [2] (setting [7]) worked out at 8.15 ± 0.17 µM. Moreover, the IC50 in data set [3] (Canis lupus familiaris, MDCK) stood at 23.22 ± 0.01 µM. The IC50 in data set [4] (H9c2, 72 h treatment) came to 10.5 ± 0.61 µM. Besides, the IC50 in data set [5] (Homo sapiens, HepG2) was 13.2 ± 0.29 µM.
Compound `Cc1nc(C)c(COC(=O)[C@]23CCC(C)(C)CC2C2=CCC4[C@@]5(C)CC[C@H](O)[C@@](C)(CO)C5CC[C@@]4(C)[C@]2(C)CC3)nc1C` (stereo partly drawn) [Compound 6, (3,5,6-Trimethylpyrazin-2-yl)methyl(4aS,6aS,6bR,9R,10S,12aR)-10-hydroxy-9-(hydroxymethyl)-2,2,6a,6b,9,12a-hexamethyl-1,3,4,5,6,6a,6b,7,8,8a,9,10,11,12,12a,12b,13,14b-octadecahydropicene-4a(2H)-carboxylate] had a melting point of 127.8 °C. For the same compound, the IC50 in data set [1] (setting [6]) was greater than 30 µM. The IC50 in data set [2] (setting [7]) is 25.5 ± 0.26 µM. In addition, in data set [3] (Canis lupus familiaris, MDCK), the IC50 is 24.1 ± 0.76 µM. In addition, the IC50 in data set [4] (H9c2, 72 h treatment) is greater than 30 µM. Moreover, the IC50 in data set [5] (Homo sapiens, HepG2) was greater than 30 µM.
On to `Cc1nccnc1C(=O)OC[C@@]1(C)C2CC[C@]3(C)C(CC=C4C5CC(C)(C)CC[C@]5(C(=O)OCCCCCl)CC[C@]43C)[C@@]2(C)CC[C@@H]1O` (stereo partly drawn) [Compound 24, ((3S,4R,6aR,6bS,8aS,14bR)-8a-((4-Chlorobutoxy)carbonyl)-3-hydroxy-4,6a,6b,11,11,14b-hexamethyl-1,2,3,4,4a,5,6,6a,6b,7,8,8a,9,10,11,12,12a,14,14a,14b-icosahydropicen-4-yl)methyl 3-methylpyrazine-2-carboxylate], for which the melting point is 106.1 °C. Moreover, the IC50 in data set [1] (setting [6]) worked out at 17.9 ± 2.8 µM. Further, the IC50 in data set [2] (setting [7]) came to 22 ± 0.87 µM. In data set [3] (Canis lupus familiaris, MDCK), the IC50 turned out to be 19.3 ± 1.47 µM. In addition, the IC50 in data set [4] (H9c2, 72 h treatment) came out at 27.9 ± 0.62 µM. The IC50 in data set [5] (Homo sapiens, HepG2) was 6.89 ± 0.21 µM.
`CC1(C)CC[C@]2(C(=O)OCCCCCl)CC[C@]3(C)C(=CCC4[C@@]5(C)CC[C@H](O)[C@@](C)(CO)C5CC[C@]43C)C2C1` (stereo partly drawn) [Compound 20]: the IC50 in data set [1] (setting [6]) was greater than 30 µM; in data set [2] (setting [7]), greater than 30 µM; in data set [3] (Canis lupus familiaris, MDCK), greater than 30 µM; in data set [4] (H9c2, 72 h treatment) it was greater than 30 µM; in data set [5] (Homo sapiens, HepG2) it was greater than 30 µM.
`CC1(C)CC[C@]2(C(=O)O)CC[C@]3(C)C(=CC[C@@H]4[C@@]5(C)CC[C@H](O)[C@@](C)(CO)[C@@H]5CC[C@]43C)[C@@H]2C1` [He, Hederagenin]: the IC50 in data set [1] (setting [6]) was greater than 50 µM; in data set [2] (setting [7]), greater than 50 µM; in data set [3] (Canis lupus familiaris, MDCK) it was greater than 50 µM; in data set [4] (H9c2, 72 h treatment), greater than 50 µM; in data set [5] (Homo sapiens, HepG2), greater than 50 µM.
For `N.N.[Cl][Pt][Cl]` [DDP, cisplatin, reference compound], the IC50 was 5.17 ± 0.28 µM in data set [1] (72 h treatment); 3.85 ± 0.63 µM in data set [2] (72 h treatment); 9.97 ± 1.12 µM in data set [3]; 5.31 ± 0.26 µM in data set [4] (72 h treatment); 3.42 ± 0.68 µM in data set [5].
